This experiment has as its target His-SPIKE-S2 (Severe acute respiratory syndrome coronavirus 2, UniProt P0DTC2). In kind it is binding, SARS-CoV-2. The note with it: 25 µM.
As to `N#C/C(=C/c1ccc(O)c(O)c1)C(=O)NCc1ccccc1` [AG-490], the “Thermal shift of His-SPIKE-S2 compared to DMSO control” value (“Thermal shift of His-SPIKE-S2” for short) is recorded as “did not show a change in the thermal shift curve”.

For the molecule `O=C(/C=C/c1ccc(O)c(O)c1)OCCc1ccccc1` [CAPE, caffeic acid phenethyl ester], the “Thermal shift of His-SPIKE-S2” value is reported as “did not show a change in the thermal shift curve”. Under `CC(C)c1onc(-c2c(Cl)cccc2Cl)c1COc1ccc(/C=C/c2cccc(C(=O)O)c2)c(Cl)c1` [GW4064] stands “interfered with the assay”. For the molecule `Cc1cc2c(C(C)C)c(O)c(O)c(C=O)c2c(O)c1-c1c(C)cc2c(C(C)C)c(O)c(O)c(C=O)c2c1O` [gossypol acetate], the “Thermal shift of His-SPIKE-S2” value is on record as “showed thermal shift”.
